Experimental data: US8883809B2, “Isoxazole/isoxazoline/combretastatin linked dihydroquinazolinone hybrids as potential anticancer agents and process for the preparation thereof” (Council of Scientific & Industrial Research, priority 2008, dated 2014)
Read-outs that look alike come from different tables or passages of the source.

What was measured:
OVCAR-5 = experiment: NCI in vitro cytotoxicity, SRB assay; conditions: Homo sapiens
OVCAR-8 = experiment: NCI in vitro cytotoxicity, SRB assay; conditions: Homo sapiens
MCF7 = experiment: NCI in vitro cytotoxicity, SRB assay; conditions: Homo sapiens
ACHN = experiment: NCI in vitro cytotoxicity, SRB assay; conditions: Homo sapiens
[1] = system: Non-small-cell lung cancer cell lines; experiment: NCI in vitro cytotoxicity, panel average
HS 578T = experiment: NCI in vitro cytotoxicity, SRB assay; conditions: Homo sapiens
A498 = experiment: NCI in vitro cytotoxicity, SRB assay; conditions: Homo sapiens
IGROV1 = experiment: NCI in vitro cytotoxicity, SRB assay; conditions: Homo sapiens, IGROV-1
MDA-MB-231/ATCC = experiment: NCI in vitro cytotoxicity, SRB assay; conditions: Homo sapiens
CAKI-1 = experiment: NCI in vitro cytotoxicity, SRB assay; conditions: Homo sapiens
Melanoma cell lines = experiment: NCI in vitro cytotoxicity, panel average
NCI-H522 = experiment: NCI in vitro cytotoxicity, SRB assay; conditions: Homo sapiens
From the text: (§1) The results are expressed as percent of cell growth determined relative to that of untreated control cells (Table 2).

OVCAR-3 = experiment: NCI in vitro cytotoxicity, SRB assay; conditions: Homo sapiens
K-562 = experiment: NCI in vitro cytotoxicity, SRB assay; conditions: Homo sapiens, K562
786-0 = experiment: NCI in vitro cytotoxicity, SRB assay; conditions: Homo sapiens
[2] = system: Ovarian cancer cell lines; experiment: NCI in vitro cytotoxicity, panel average
UACC-257 = experiment: NCI in vitro cytotoxicity, SRB assay; conditions: Homo sapiens
SK-MEL-5 = experiment: NCI in vitro cytotoxicity, SRB assay; conditions: Homo sapiens
EKVX = experiment: NCI in vitro cytotoxicity, SRB assay; conditions: Homo sapiens
SNB-75 = experiment: NCI in vitro cytotoxicity, SRB assay; conditions: Homo sapiens
Colon cancer cell lines = experiment: NCI in vitro cytotoxicity, panel average
SF-268 = experiment: NCI in vitro cytotoxicity, SRB assay; conditions: Homo sapiens
HL-60(TB) = experiment: NCI in vitro cytotoxicity, SRB assay; assay type: cell-based; conditions: Homo sapiens; Leukemia HL-60(TB)
SF-295 = experiment: NCI in vitro cytotoxicity, SRB assay; conditions: Homo sapiens
SN12C = experiment: NCI in vitro cytotoxicity, SRB assay; conditions: Homo sapiens
OVCAR-4 = experiment: NCI in vitro cytotoxicity, SRB assay; conditions: Homo sapiens
SF-539 = experiment: NCI in vitro cytotoxicity, SRB assay; conditions: Homo sapiens
Renal cancer cell lines = experiment: NCI in vitro cytotoxicity, panel average
SK-OV-3 = experiment: NCI in vitro cytotoxicity, SRB assay; conditions: Homo sapiens
MDA-MB-468 = experiment: NCI in vitro cytotoxicity, SRB assay; conditions: Homo sapiens
A549/ATCC = experiment: NCI in vitro cytotoxicity, SRB assay; conditions: Homo sapiens
UO-31 = experiment: NCI in vitro cytotoxicity, SRB assay; conditions: Homo sapiens
HOP-92 = experiment: NCI in vitro cytotoxicity, SRB assay; conditions: Homo sapiens
From the text: as §1

[3] = system: Prostate cancer cell lines; experiment: NCI in vitro cytotoxicity, panel average
LOX IMVI = experiment: NCI in vitro cytotoxicity, SRB assay; conditions: Homo sapiens
HCT-15 = experiment: NCI in vitro cytotoxicity, SRB assay; conditions: Homo sapiens
KM12 = experiment: NCI in vitro cytotoxicity, SRB assay; conditions: Homo sapiens
Breast cancer cell lines = experiment: NCI in vitro cytotoxicity, panel average
NCI/ADRRES = experiment: NCI in vitro cytotoxicity, SRB assay; conditions: Homo sapiens, NCI/ADR-RES
MDA-MB-435 = experiment: NCI in vitro cytotoxicity, SRB assay; conditions: Homo sapiens
[4] = system: forty nine human tumour cell lines; experiment: NCI in vitro cytotoxicity screen, SRB assay, 48 h continuous exposure
NCI-H23 = experiment: NCI in vitro cytotoxicity, SRB assay; conditions: Homo sapiens
From the text: as §1

MOLT-4 = experiment: NCI in vitro cytotoxicity, SRB assay; conditions: Homo sapiens
HCC-2998 = experiment: NCI in vitro cytotoxicity, SRB assay; conditions: Homo sapiens
From the text: as §1

PC-3 = experiment: NCI in vitro cytotoxicity, SRB assay; conditions: Homo sapiens
NCI-H460 = experiment: NCI in vitro cytotoxicity, SRB assay; conditions: Homo sapiens
From the text: as §1

UACC-62 = experiment: NCI in vitro cytotoxicity, SRB assay; conditions: Homo sapiens
SK-MEL-28 = experiment: NCI in vitro cytotoxicity, SRB assay; conditions: Homo sapiens
M14 = experiment: NCI in vitro cytotoxicity, SRB assay; conditions: Homo sapiens
Leukemia cell lines = experiment: NCI in vitro cytotoxicity, panel average
HCT-116 = experiment: NCI in vitro cytotoxicity, SRB assay; conditions: Homo sapiens
SW-620 = experiment: NCI in vitro cytotoxicity, SRB assay; conditions: Homo sapiens
DU-145 = experiment: NCI in vitro cytotoxicity, SRB assay; conditions: Homo sapiens
RPMI-8226 = experiment: NCI in vitro cytotoxicity, SRB assay; conditions: Homo sapiens
T-47D = experiment: NCI in vitro cytotoxicity, SRB assay; conditions: Homo sapiens, T47D
CNS cancer cell lines = experiment: NCI in vitro cytotoxicity, panel average; conditions: average of the panel's cell lines
SNB-19 = experiment: NCI in vitro cytotoxicity, SRB assay; conditions: Homo sapiens
U251 = experiment: NCI in vitro cytotoxicity, SRB assay; conditions: Homo sapiens, U-251
CCRF-CEM = experiment: NCI in vitro cytotoxicity, SRB assay; conditions: Homo sapiens
[5] = Homo sapiens, read-out: Log10 LC50 (converted)

COc1cc(C2NC(=O)c3ccccc3N2)ccc1OCCCCCOc1c(OC)cc(C2=NOC(c3cc(OC)c(OC)c(OC)c3)C2)cc1OC (centres unmarked) [Compound 7d, 2-[4-(5-{2,6-Dimethoxy-4-[5-(3,4,5-trimethoxy-phenyl)-4,5-dihydro-isoxazol-3-yl]-phenoxy}-pentyloxy)-3-methoxy-phenyl]-2,3-dihydro-1H-quinazolin-4-one]
GI50 (OVCAR-5): 31.7 µM | GI50 (OVCAR-8): 25.7 µM | GI50 (MCF7): 0.45 µM | GI50 (ACHN): 0.95 µM | CC50 [1, 5]: ≥ 100 µM | Log10 GI50 ([1]; Non-small-cell lung, average of the panel's cell lines): −4.97 mol/L | GI50 (HS 578T): 15 µM | GI50 (A498): 19.3 µM | GI50 (IGROV1): 0.32 µM | GI50 (MDA-MB-231/ATCC): 14.7 µM | GI50 (CAKI-1): 18 µM | CC50 (Melanoma cell lines; [5]): ≥ 100 µM | Log10 GI50 (Melanoma cell lines; Melanoma, average of the panel's cell lines): −5.69 mol/L | GI50 (NCI-H522): 27.4 µM | GI50 (OVCAR-3): 12.4 µM | GI50 (K-562): 0.37 µM | GI50 (786-0): 31.8 µM | CC50 [2, 5]: ≥ 100 µM | Log10 GI50 ([2]; Ovarian, average of the panel's cell lines): −5.20 mol/L | GI50 (UACC-257): 0.29 µM | GI50 (SK-MEL-5): 0.18 µM | GI50 (EKVX): 0.36 µM | GI50 (SNB-75): 34.2 µM | Log10 GI50 (Colon cancer cell lines; Colon, average of the panel's cell lines): −5.17 mol/L | CC50 (Colon cancer cell lines; [5]): ≥ 100 µM | GI50 (SF-268): 20.2 µM | GI50 (HL-60(TB)): 12.2 µM | GI50 (SF-295): 16.4 µM | GI50 (SN12C): 39.1 µM | GI50 (OVCAR-4): 0.49 µM | GI50 (SF-539): 21.2 µM | CC50 (Renal cancer cell lines; [5]): ≥ 100 µM | Log10 GI50 (Renal cancer cell lines; Renal, average of the panel's cell lines): −4.72 mol/L | GI50 (SK-OV-3): 38.5 µM | GI50 (MDA-MB-468): 0.08 µM | GI50 (A549/ATCC): 15.7 µM | GI50 (UO-31): 21.4 µM | GI50 (HOP-92): 15.8 µM | CC50 [3, 5]: ≥ 100 µM | Log10 GI50 ([3]; Prostate, average of the panel's cell lines): −5.39 mol/L | GI50 (LOX IMVI): 19.5 µM | GI50 (HCT-15): 15.9 µM | GI50 (KM12): 10.4 µM | Log10 GI50 (Breast cancer cell lines; Breast, average of the panel's cell lines): −5.82 mol/L | CC50 (Breast cancer cell lines; [5]): ≥ 100 µM | GI50 (NCI/ADRRES): 10.6 µM | GI50 (MDA-MB-435): 0.6 µM | GI50 ([4]; Homo sapiens, read-out: GI50 value): < 40 µM | GI50 ([4]; Homo sapiens, read-out: Log10 GI50 mean graph midpoint (MG_MID) (converted)): 5.25 µM | CC50 ([4]; Homo sapiens, read-out: Log10 LC50 mean graph midpoint (MG_MID) (converted)): 95.5 µM | in vitro cytotoxicity (in words) ([4]; cancer cell lines): significant cytotoxicity | Log10 TGI mean graph midpoint (MG_MID) ([4]; human tumour cell lines): −4.18 | GI50 (NCI-H23): 0.38 µM | GI50 (MOLT-4): 0.68 µM | GI50 (HCC-2998): 0.06 µM | GI50 (PC-3): 0.74 µM | GI50 (NCI-H460): 15.1 µM | GI50 (UACC-62): 0.99 µM | GI50 (SK-MEL-28): 3.24 µM | GI50 (M14): 19.8 µM | CC50 (Leukemia cell lines; [5]): 70.8 µM | Log10 GI50 (Leukemia cell lines; Leukemia, average of the panel's cell lines): −6.17 mol/L | GI50 (HCT-116): 0.26 µM | GI50 (SW-620): 21 µM | GI50 (DU-145): 22.4 µM | GI50 (RPMI-8226): 0.06 µM | GI50 (T-47D): 0.3 µM | Log10 GI50 (CNS cancer cell lines): −4.66 mol/L | GI50 (SNB-19): 16.6 µM | GI50 (U251): 25.2 µM | GI50 (CCRF-CEM): 0.62 µM
